Results as given in PMC3433414, “Oral Administration of the Pimelic Diphenylamide HDAC Inhibitor HDACi 4b Is Unsuitable for Chronic Inhibition of HDAC Activity in the CNS In Vivo” (PLoS ONE, 2012).
Entries after “also recorded” stand apart in the source; their conditions may differ. One block for each compound: values may come before it.

Experiments:
[1] = Solubility in water, formulations and DMSO; assay type: physicochemical
Description: (§1) Thomas and colleagues reported that a solution of 4b at 1 mg/mL was previously obtained using this procedure. […] We therefore prepared both TFA and hydrochloride (HCl) salts of 4b to establish whether they could offer improved solubility. Neither salt form of 4b was particularly soluble in water (<1 mg/ml). […] A study of the stability of the TFA salt also raised another more worrying issue in the use of 2-hydroxypropyl-β-cyclodextrin–complexed 4b salts for potential in vivo studies. […] The 4b. TFA cyclodextrin suspension targeted at 1 mg/ml with heating gave an initial (day 1) measured value of 0.75 mg/ml total 4b, with only 0.27 mg/mL solubilised as quantified in the sample after filtration. The lower than expected initial quantification of 4b was most likely due to the TFA salt rapidly degrading upon heating. Indeed, we always found the presence of the cyclised benzimidazole conversion product, named throughout as product C1, in the salt formulations even at t = 0 after preparation. Furthermore, the suspension was not stable upon standing in the dark with gentle shaking at room temperature, with a further 28% decrease observed in parent (4b) concentration on day 7 analysis, compared to day 1.
As a consequence de novo formulation attempts were made with the stable free base form. After several trials with different excipients, we were able to reach a soluble formulation preparation of 1 mg/ml 4b in 2% N-methyl-2-pyrollidone, 18% polyethylene glycol 400, 10% solutol HS-15 and 70% (1% Lutrol F68 in water), a vehicle which we have previously used without any adverse effects in R6/2 model chronic efficacy trials, but is unlikely to be palatable to mice in drinking water. With this concentration, a single oral gavage dose will result in a maximum of 10 mg/kg dose level (assuming a maximum dose volume of […]), considerably lower than that estimated to have been used by Thomas et al (150 mg/kg day in drinking water). In an attempt to replicate the original dose level as close as possible, it became necessary to formulate the test compound in suspension. We achieved a stable homogeneous suspension of free base 4b up to 100 mg/ml in 0.5% carboxymethylcellulose (medium viscosity) in reverse osmosis deionized (RODI) water. This suspension was used to evaluate the oral pharmacokinetics of 4b in mice. […]

[2] = Chemical stability in formulation or solution; assay type: physicochemical
Description: as §1, with “TFA cyclodextrin suspension targeted at 1 mg/ml with heating gave an initial (day 1) measured value of 0.75 mg/ml total 4b, with only 0.27 mg/mL solubilised as quantified in the sample after filtration.” left out
According to Thomas et al, verification of an acute pharmacodynamic response (the reversal of transcriptional dysregulation in the R6/2 model) was achieved by the repeated once daily injection of 150 mg/kg 4b in 50∶50 DMSO: PBS for three consecutive days. […] The lack of any pharmacodynamic response predictive of central Class I HDAC inhibition when 4b was dosed orally at 150 mg/kg twice daily for 5 days confirmed this prediction.

[3] = Solubility in water, formulations and DMSO; assay type: physicochemical; details: cyclodextrin formulation prepared without heating
[4] = Hepatic microsomal stability; assay type: in vitro ADME, mouse; details: mouse hepatic microsomes; parent 4b
Description: Incubations of test compounds (1 µM initial concentration, n = 2) were carried out with pooled hepatic microsomes (0.25 mg protein/mL in 0.1 M phosphate buffer pH 7.4). NADPH (1 mM) was added to initiate the reactions. The incubations were performed at 37°C. Samples (100 µL) were taken from the incubation at 0, 5, 10, 20 and 40 min and added to 100 µL of acetonitrile containing carbamazepine as analytical internal standard, to terminate the reaction. Samples were centrifuged and the supernatant fractions analysed by LC-MS/MS. The instrument responses (i.e. chromatographic peak heights), normalized by internal standard response were referenced to the zero time-point samples (as 100%) in order to determine the percentage of compound remaining.
Ln plots of the % remaining, for each compound, were used to determine the half-life for the microsomal incubations.
Half-life values were calculated from the relationship. [drawing 2] where λ was the slope of the Ln concentration vs time curve.
The in vitro intrinsic clearance, CLint (µL/min/mg microsomal protein), was calculated using the following formula: [drawing 3]
When quantification was required, calibration standards for parent compound and metabolites were prepared in control hepatic microsomes and extracted and analysed as described for the study samples. Quantification of parent compound or metabolite was by extrapolation from the calibration line.

Plasma stability = assay type: in vitro ADME, mouse; details: mouse plasma
Description: Incubations of test compound (5 µM initial concentration, n = 2) were carried out with pooled mouse plasma or BSA (45 mg/mL in 0.1 M phosphate buffered saline). The incubations were performed at 37°C. Samples (50 µL) were obtained from the incubation at 0, 10, 30, 120, 240, 360 and 1440 min, and added to 150 µL of acetonitrile containing carbamazepine as analytical internal standard to terminate the reaction. Samples were centrifuged and the supernatant fractions analysed by LC-MS/MS.
For half-life determinations, the instrument responses (peak areas) normalized for internal standard response, were referenced to the zero time-point samples (as 100%) in order to determine the percentage of compound remaining. Ln plots of the % remaining, for each compound, were used to determine the half-life for the plasma incubations. Half-life values were calculated from the relationship:-. [drawing 1] Where λ was the slope of the natural logarithmic (Ln) concentration vs time curve.
When quantification was required, calibration standards for parent compound and metabolites were prepared in control plasma and extracted and analysed as described for the study samples. Quantification of parent compound or metabolite was by extrapolation from the calibration line.

[5] = tested on: endogenous Class I HDACs/HDAC6; experiment: Cellular HDAC assay, Boc_Lys_Ac substrate, Jurkat E6.1 cells; assay type: cell-based; details: up to 50 µM; 5 h incubation
Description: Briefly, Jurkat E6.1 cells (obtained from the European Collection of Cell Cultures (ECACC)) were plated into 384 well plates at 75,000 cells/well in cellular assay buffer (RPMI without phenol red, 0.1% Fetal Bovine Serum, 10 mM HEPES, 1 mM Sodium Pyruvate). […] Fluorescent counts were read the following morning on the Perkin Elmer EnVision.
Each compound was tested in duplicate in concentration-response format on 3 separate days. […] A full dose response of reference compound was always included alongside the profiling, to ensure that assay parameters remained within acceptable limits.

HDAC3-NcoR2 = target: T1, HDAC3-NcoR2 (Homo sapiens, UniProt O15379); experiment: Two-step fluorogenic deacetylase assay, recombinant HDAC3; assay type: biochemical; details: standard 1 h pre-incubation conditions
T1 construct: purified recombinant human full length HDAC1 (cat# 50051), HDAC2 (cat# 50052), HDAC3-NcoR2 (cat# 50003); purchased BPS Bioscience (San Diego, CA) 50003
Description: As described, the length of compound-enzyme incubation has been reported to be critical for this class of HDAC inhibitors, where a unique time-dependent increase in affinity and subsequent potency has been observed [36]–[38]. […] To better mimic physiological conditions, our experiments were performed at 37°C as opposed to room temperature as reported in previous studies. […] To confirm that this shift was independent of the time of 4b in aqueous solution, 4b was applied immediately to the enzyme-substrate mix both after preparing in aqueous buffer, and 120 min after preparation.
To assess the biochemical and cellular potency of 4b and its conversion products/metabolites, we utilized the two-step fluorogenic assay which measures the HDAC-mediated catalytic conversion of synthetic acetylated lysine substrates. In brief, on deacetylation of the substrates by HDAC activity, a protease site is unmasked which allows subsequent trypsin-mediated cleavage and release of the highly flourescent AMC molecules in a subsequent step of the assay. The substrates used were Lys_Ac_AMC (Bachem I-1875) for HDAC3 and (Ac)Arg-Gly-Lys(Ac) (Bachem I-1925) for HDAC1 and HDAC2. The final substrates used for each enzyme assessment were carefully selected after assessing the catalytic turnover of each of these substrates against HDAC1, HDAC2 and HDAC3 respectively, and selecting the ones that performed best. To assess Class IIa enzyme activity (HDAC4, 5, 7, 9) and Class I HDAC8 activity, we used the alternative substrate Boc_Lys_TFA (Bachem I-1985), equivalent to substrate 4 of [42]. Class IIa HDACs have approximately 1000-fold less catalytic activity than Class 1 enzymes, and show only extremely low turnover of acetylated substrates due to a Tyr to His mutation in the active site. However, the relatively labile and sterically more demanding trifluoracetyl group is readily hydrolyzed by the catalytically less avid Class IIa enzymes, allowing measurement of Class IIa activity using the 2-step fluorogenic assay. Intriguingly the Boc_Lys_TFA substrate seems to show almost total selectivity for Class IIa enzymes over class I and Class IIb enzymes, with the exception of HDAC8 ([42], and internal data).
(§2) For evaluation of the class selectivity of the compounds, we assessed inhibition against purified recombinant human full length HDAC1 (cat# 50051), HDAC2 (cat# 50052), HDAC3-NcoR2 (cat# 50003) and HDAC8 (cat# 50008): as representative of Class I activity; catalytic domain HDAC4(αα 648–1057), HDAC5 (αα 657–1123; cat # 50005), HDAC7 (αα 518-end; cat # 50007) and HDAC9 (αα 604–1066; cat # 50009) activity: representing all Class IIa activity; and full length HDAC6 (cat#50006): representing Class IIb activity. With the exception of purified catalytic domain HDAC4, which was prepared for us by Emerald Biosciences (Seattle, WA), all HDAC enzymes were purchased from BPS Bioscience (San Diego, CA).
Unless otherwise stated in the text, assays were run in the following format in 384-well plates using automated liquid handling procedures. Briefly, frozen enzyme stock and compounds were diluted in assay buffer (50 mM Tris-HCl, 137 mM NaCl, 2.7 mM KCl, 1 mM MgCl2 at pH 8.0) and added to plates at concentrations sufficient to achieve a 16-point concentration-response curve from 50 µM to 1 nM at 1% DMSO final concentration, after addition of all reagents. Substrate diluted in assay buffer was then added and plates were incubated after brief shaking for 60 min at 37°C. Following incubation, a developer/stop-step was introduced to terminate the reaction and cleave the fluorescent substrate: either the addition of trypsin with 10 µM Compound 26 [44] for the Class IIa enzymes, or trypsin with 5 µM Trichostatin A (TSA) for the Class I/IIb enzymes. Plates were briefly shaken and then returned to the incubator for a further 60 min, followed by measurement of fluorescence per well (Ex 355 nm, Em 460 nm) on a Perkin Elmer EnVision. […]

HDACs = experiment: Biochemical HDAC assays (whole panel); parameters: species or system human; details: up to 50 µM
From the text: To assess the biochemical and cellular potency of 4b and its conversion products/metabolites, we utilized the two-step fluorogenic assay which measures the HDAC-mediated catalytic conversion of synthetic acetylated lysine substrates. In brief, on deacetylation of the substrates by HDAC activity, a protease site is unmasked which allows subsequent trypsin-mediated cleavage and release of the highly flourescent AMC molecules in a subsequent step of the assay. The substrates used were Lys_Ac_AMC (Bachem I-1875) for HDAC3 and (Ac)Arg-Gly-Lys(Ac) (Bachem I-1925) for HDAC1 and HDAC2. […] However, the relatively labile and sterically more demanding trifluoracetyl group is readily hydrolyzed by the catalytically less avid Class IIa enzymes, allowing measurement of Class IIa activity using the 2-step fluorogenic assay. […]
as §2, with “With the exception of purified catalytic domain HDAC4, which was prepared for us by Emerald Biosciences (Seattle, WA), all HDAC enzymes were purchased from BPS Bioscience (San Diego, CA).” left out

FXN = tested on: FXN; parameters: method as in PMID 16921367; details: at the concentration tested; cited from earlier work
[6] = cyclodextrin suspension targeted at 1 mg/ml, with heating

T1 sequence (O15379 whole entry): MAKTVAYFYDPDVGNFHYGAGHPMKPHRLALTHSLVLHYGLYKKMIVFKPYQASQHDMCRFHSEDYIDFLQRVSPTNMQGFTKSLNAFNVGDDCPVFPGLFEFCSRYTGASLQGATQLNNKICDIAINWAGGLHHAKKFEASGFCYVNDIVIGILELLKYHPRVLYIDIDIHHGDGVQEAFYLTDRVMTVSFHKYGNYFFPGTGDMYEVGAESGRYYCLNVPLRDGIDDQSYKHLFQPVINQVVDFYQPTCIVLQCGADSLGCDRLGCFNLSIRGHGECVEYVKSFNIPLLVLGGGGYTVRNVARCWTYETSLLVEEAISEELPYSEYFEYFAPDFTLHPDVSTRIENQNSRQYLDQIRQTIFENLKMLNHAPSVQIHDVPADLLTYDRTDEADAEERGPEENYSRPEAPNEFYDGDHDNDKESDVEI
T1 sequence (Q9Y618 395-489 partner limits assumed): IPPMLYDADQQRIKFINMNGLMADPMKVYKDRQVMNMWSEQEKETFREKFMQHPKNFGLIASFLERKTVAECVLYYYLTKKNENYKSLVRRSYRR

- 4b solubilised (after filtration), day 1 [1, 6]: 0.27 mg/mL
- total 4b measured in suspension, day 1 [1, 6]: 0.75 mg/mL
- solubility in DMSO ([1]; prepared at 1 mg/ml): soluble
- solubility in water ([1]; salt forms): < 1000 µg/mL
- day 7 value as % of value at day 1 ([2]; 1 mg/ml in DMSO): 59%
- decrease in parent (4b) concentration, day 7 compared to day 1 ([2]; cyclodextrin suspension, dark, gentle shaking, room temperature): 28%
- cyclisation to benzimidazole product in solution ([2]; eg. aqueous acetonitrile, ambient temperature, more rapidly when heated): cyclised slowly
- 4b dissolved (filtrate of suspension) [3]: 0.3 mg/mL
Compound: Cc1ccc(NC(=O)CCCCCC(=O)Nc2ccccc2N)cc1.O=C(O)C(F)(F)F [4b. TFA]

- share of the metabolism of parent accounted for by metabolite [4]: 42%
- share of the metabolism of parent accounted for by metabolite (Plasma stability; parent 4b): 78%
- IC50 (HDAC3-NcoR2): 26 µM
Compound: Nc1ccccc1NC(=O)CCCCCC(=O)O [Compound M1]
- activity in the Class I cellular HDAC (Boc_Lys_Ac) assay [5]: totally inactive; also recorded: neither inhibits HDACs

- share of the metabolism of parent accounted for by metabolite (Plasma stability; parent C1): 80%
Compound: O=C(O)CCCCCc1nc2ccccc2[nH]1 [Compound M3]
- activity in the biochemical HDAC assays (HDACs): inactive
- activity in the Class I cellular HDAC (Boc_Lys_Ac) assay [5]: inactive

Compound: BML-210 [reference compound]
- effect on FXN mRNA (FXN): increase FXN mRNA without cytotoxicity
